Source: ChEMBL document CHEMBL1212694, “Discovery and characterization of a marine bacterial SAM-dependent chlorinase” (Nat Chem Biol, 2008)
Numbering of substitutions follows the chain as printed. The source made the active and inactive calls. No cut-off for these calls is given here.

Assays:
[1] = test system: Salinispora tropica CNB-440; experiment: Ratio of Kcat to Km for Salinispora tropica CNB-440 wild type recombinant SalL expressed in Escherichia coli BL21(DE3) for formation of S-Adenosyl methionine
[2] = test system: Salinispora tropica CNB-440; experiment: Activity at Salinispora tropica CNB-440 wild type recombinant SalL expressed in Escherichia coli BL21(DE3) assessed as formation of S-Adenosyl methionine after 30 mins by HPLC analysis
[3] = test system: Salinispora tropica CNB-440; experiment: Effect on Salinispora tropica CNB-440 wild type recombinant SalL expressed in Escherichia coli BL21(DE3)-mediated S-Adenosyl methionine formation after 30 mins by HPLC analysis
[4] = test system: Salinispora tropica CNB-440; experiment: Activity at Salinispora tropica CNB-440 wild type recombinant SalL expressed in Escherichia coli BL21(DE3) after 30 mins by HPLC analysis
[5] = test system: Salinispora tropica CNB-440; experiment: Ratio of Kcat to Km for Salinispora tropica CNB-440 wild type recombinant SalL expressed in Escherichia coli BL21(DE3)
[6] = test system: T1, Adenosyl-chloride synthase (Salinispora tropica (strain ATCC BAA-916 / DSM 44818 / CNB-440)), A4X3Q0 [Y70T]; experiment: Activity at Salinispora tropica CNB-440 recombinant SalL Y70T mutant expressed in Escherichia coli BL21(DE3) after 30 mins by HPLC analysis relative to S-Adenosyl methionine
T1 sequence (whole entry): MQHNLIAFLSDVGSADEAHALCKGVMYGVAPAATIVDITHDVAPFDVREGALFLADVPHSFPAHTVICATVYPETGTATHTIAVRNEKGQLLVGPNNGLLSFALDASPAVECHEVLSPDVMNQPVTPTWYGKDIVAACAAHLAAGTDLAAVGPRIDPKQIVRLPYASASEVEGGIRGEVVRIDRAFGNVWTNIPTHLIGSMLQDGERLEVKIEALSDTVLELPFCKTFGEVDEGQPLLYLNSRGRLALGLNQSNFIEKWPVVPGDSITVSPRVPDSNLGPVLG

[7] = test system: T2, Adenosyl-chloride synthase (Salinispora tropica (strain ATCC BAA-916 / DSM 44818 / CNB-440)), A4X3Q0 [W129F]; experiment: Activity at Salinispora tropica CNB-440 recombinant SalL W129F mutant expressed in Escherichia coli BL21(DE3) after 30 mins by HPLC analysis relative to S-Adenosyl methionine
T2 sequence (whole entry): T1 sequence (whole entry) with T70Y, W129F

[8] = test system: T3, Adenosyl-chloride synthase (Salinispora tropica (strain ATCC BAA-916 / DSM 44818 / CNB-440)), A4X3Q0 [Y70T,G131S]; experiment: Activity at Salinispora tropica CNB-440 recombinant SalL Y70T/G131S mutant expressed in Escherichia coli BL21(DE3) after 30 mins by HPLC analysis relative to S-Adenosyl methionine
T3 sequence (whole entry): T1 sequence (whole entry) with G131S

[9] = test system: Salinispora tropica CNB-440; experiment: Activity at Salinispora tropica CNB-440 wild type recombinant SalL expressed in Escherichia coli BL21(DE3) after 30 mins by HPLC analysis relative to S-Adenosyl methionine

CSCC[C@H](N)C(=O)O
kcat/Km [1]: 76.7 M⁻¹ s⁻¹
Activity [2]: 1300%
Km [3]: 2600 µM
kcat [3]: 0.2 s⁻¹

C[S+](CC[C@H](N)C(=O)[O-])C[C@H]1O[C@@H](n2cnc3c(N)ncnc32)[C@H](O)[C@@H]1O (some centres not stated)
Km [4]: 1 µM
kcat [4]: 0.015 s⁻¹
kcat/Km [5]: 15000 M⁻¹ s⁻¹

Nc1ncnc2c1ncn2[C@@H]1O[C@H](CI)[C@@H](O)[C@H]1O
kcat/Km [1]: 181000 M⁻¹ s⁻¹
Activity [2]: 5560%
Km [3]: 4.6 µM
kcat [3]: 0.833 s⁻¹
Activity [6]: 1.4%
Activity [7]: 12%
Activity [8]: 0.8%
Activity [9]: 100%

Nc1ncnc2c1ncn2[C@@H]1O[C@H](CCl)[C@@H](O)[C@H]1O
kcat/Km [1]: 1e+06 M⁻¹ s⁻¹
Activity [2]: 1300%
Km [3]: 0.2 µM
kcat [3]: 0.2 s⁻¹
Activity [6]: 1.1%
Activity [7]: 11%
Activity [8]: 2.5%
Activity [9]: 100%

Nc1ncnc2c1ncn2[C@@H]1O[C@H](CBr)[C@@H](O)[C@H]1O
kcat/Km [1]: Active
Activity [2]: Active
Km [3]: Active
kcat [3]: Active
